{
  "source": "patent US20250367109A1",
  "about": "“DEVICES, SYSTEMS, AND METHODS FOR IMPROVED BONE REMODELING” (UNIVERSITY OF UTAH RESEARCH FOUNDATION, priority 2024, published 2025)",
  "assay": "local elution of estradiol from implant in left proximal humerus; estradiol concentration in tendon tissue samples by mass spectroscopy",
  "format": "in vivo, wild-type rats",
  "conditions": "one week after implantation into left proximal humerus; compared with right rotator cuff, left and right Achilles tendon; 200 micrograms estradiol load",
  "description": "Drug-eluting implants analogous to drug-eluting implant 200 were comprised of polycaprolactone and estradiol. The drug-eluting implants were in the form of a cylinder 1 mm in diameter and 5 mm long, and loaded with 200 micrograms of estradiol. The drug-eluting implants were implanted into the left proximal humeri of wild-type rats. One week following implantation, the animals were euthanized and tendon tissue samples were collected at the following sites: left rotator cuff (target site), right rotator cuff, left Achilles tendon, and right Achilles tendon. Mass spectroscopy was used to determine the estradiol concentration in the tissue samples, and the results are provided in an estradiol concentration chart 300.",
  "data": [
    {"smiles": "C[C@]12CC[C@@H]3c4ccc(O)cc4CC[C@H]3[C@@H]1CC[C@@H]2O", "note": "[estradiol]", "values": [
      {"measurement": "estradiol concentration in left rotator cuff tissue (target site) relative to remote tendon sites", "result": "significantly higher local estradiol concentrations at the target region relative to other regions"}
    ]}
  ]
}
